According to patent US20230373985A1 (Origenis Gmbh, priority 2020, published 2023):

Tests used:
[1] = target: T1, wt human LRRK2, catalytic site (Homo sapiens, UniProt Q5S007); test: TR-FRET LanthaScreen Eu Kinase Binding Assay, LRRK2 wt; conditions: one range stated for wt and G2019, read-out: IC50, Activity Toward LRRK2(Wt)
T1 construct: 5 nM wt human LRRK2, catalytic site; purchased ThermoFisher
In short: (§1)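 Competitive tracer-displacement TR-FRET, 1 h at room temperature, read as emission ratio. LRRK2 (wt or G2019S catalytic domain) at 5 nM with 2 nM Eu-anti-GST and 10 nM Tracer 236; full-length NUAK1 at 8 nM with 2 nM Eu-anti-His and 5 nM Tracer 236, all final in Kinase Buffer A.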

[2] = target: T2, wt human NUAK1, full length (Homo sapiens, UniProt O60285); test: TR-FRET LanthaScreen Eu Kinase Binding Assay, NUAK1; conditions: read-out: IC50, Activity Toward NUAK1
T2 construct: 8 nM wt human NUAK1, full length (ThermoFisher/USA); purchased ThermoFisher
T2 sequence (O60285 1-661): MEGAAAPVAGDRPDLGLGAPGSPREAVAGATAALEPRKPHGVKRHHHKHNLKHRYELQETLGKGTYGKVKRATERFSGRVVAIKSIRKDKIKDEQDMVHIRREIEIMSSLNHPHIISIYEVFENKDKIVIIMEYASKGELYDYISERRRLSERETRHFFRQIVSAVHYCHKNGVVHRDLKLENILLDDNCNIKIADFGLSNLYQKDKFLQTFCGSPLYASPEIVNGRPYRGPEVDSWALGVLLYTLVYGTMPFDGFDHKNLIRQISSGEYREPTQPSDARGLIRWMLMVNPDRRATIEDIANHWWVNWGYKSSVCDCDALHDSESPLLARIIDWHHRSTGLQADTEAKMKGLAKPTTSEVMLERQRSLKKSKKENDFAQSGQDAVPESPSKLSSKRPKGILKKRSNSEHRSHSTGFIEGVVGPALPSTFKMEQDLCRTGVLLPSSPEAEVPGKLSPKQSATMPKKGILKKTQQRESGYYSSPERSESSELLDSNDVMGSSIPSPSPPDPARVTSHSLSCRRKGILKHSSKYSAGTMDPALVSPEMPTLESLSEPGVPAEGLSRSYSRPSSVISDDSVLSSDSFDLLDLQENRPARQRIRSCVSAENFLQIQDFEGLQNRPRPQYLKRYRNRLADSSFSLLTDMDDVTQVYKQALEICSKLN
Protocol: The basic protocol for TR-FRET LanthaScreen Eu Kinase Binding Assay inhibitor studies were performed as follows. LanthaScreen Kinase Binding Assays (ThermoFisher/USA) to evaluate inhibitors were performed by addition of 5 μL of test compound in corresponding DMSO dilutions/5 μl of kinase/antibody mixture, 5 μL of tracer into 384 well small volume plates. After incubation for 1 hour at room temperature, plates were read. Data analysis of emission ratios was according LanthaScreen Eu Kinase Binding Assay protocol.
Kinase and assay components were adjusted to final concentrations according to kit protocol. For LRRK2: 5 nM wt human LRRK2, catalytic site, or G2019S human LRRK2, catalytic site (ThermoFisher/USA), 2 nM Eu-Anti-GST Antibody, 10 nM Kinase Tracer 236 in 1× Kinase Buffer A. For NUAK1: 8 nM wt human NUAK1, full length (ThermoFisher/USA), 2 nM Eu-Anti-His Antibody, 5 nM Kinase Tracer 236 in 1× Kinase Buffer A.

[3] = target: T3, wt human TYK2, catalytic site (Homo sapiens, UniProt P29597); test: HTRF KinEASE assay, TYK2; format: biochemical; conditions: 1 μM ATP; read-out: IC50, Activity Toward TYK2
T3 construct: wt human TYK2, catalytic site; purchased SignalChem
T3 sequence (P29597 897-1176 limits assumed): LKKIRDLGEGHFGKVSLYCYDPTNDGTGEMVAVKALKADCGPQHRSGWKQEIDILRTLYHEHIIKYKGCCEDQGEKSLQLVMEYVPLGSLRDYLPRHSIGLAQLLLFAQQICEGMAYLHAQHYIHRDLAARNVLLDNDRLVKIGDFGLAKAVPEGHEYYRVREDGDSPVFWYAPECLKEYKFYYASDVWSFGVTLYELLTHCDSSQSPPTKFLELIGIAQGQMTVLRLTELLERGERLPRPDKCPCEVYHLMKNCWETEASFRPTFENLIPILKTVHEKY
In short: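 HTRF KinEASE-TK readout with 1 μM biotinylated TK substrate in 1× kinase buffer, ≥30 min at room temperature, then antibody/streptavidin-XL665 detection for 60 min. TYK2 at 2 nM with 1 μM ATP; JAK2 at 1 nM with 100 μM ATP. Analysis uses emission ratios.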

[4] = target: T4, wt human JAK1, catalytic site (Homo sapiens, UniProt P23458); test: HTRF KinEASE assay, JAK1; format: biochemical; conditions: 2.5 μM ATP; read-out: IC50, Activity Toward JAK1
T4 construct: wt human JAK1, catalytic site; purchased ThermoFisher
In short: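 Two-step HTRF KinEASE assay: compound, kinase/biotinylated TK substrate and ATP were incubated at least 30 min at room temperature. Antibody plus streptavidin-XL665 was then added and plates were read after 60 min. Inhibition was derived from emission ratios according to the kit protocol.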

[5] = target: T5, G2019S human LRRK2, catalytic site (Homo sapiens, UniProt Q5S007, G2019S); test: TR-FRET LanthaScreen Eu Kinase Binding Assay, LRRK2 G2019S; conditions: LRRK2(G2019); one range stated for wt and G2019; read-out: IC50, Activity Toward LRRK2(G2019)
T5 construct: G2019S human LRRK2, catalytic site; purchased ThermoFisher
In short: as §1

T4 sequence (P23458 875-1153 limits assumed): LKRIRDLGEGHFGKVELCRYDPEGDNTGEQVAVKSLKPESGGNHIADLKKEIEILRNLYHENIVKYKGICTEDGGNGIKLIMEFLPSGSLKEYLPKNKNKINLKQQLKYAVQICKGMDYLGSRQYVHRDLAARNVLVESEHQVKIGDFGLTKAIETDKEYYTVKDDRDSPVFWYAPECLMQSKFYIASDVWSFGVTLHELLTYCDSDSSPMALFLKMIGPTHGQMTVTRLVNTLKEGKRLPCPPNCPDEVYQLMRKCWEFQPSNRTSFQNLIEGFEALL
T5 sequence (Q5S007 970-2527 G2019S limits assumed): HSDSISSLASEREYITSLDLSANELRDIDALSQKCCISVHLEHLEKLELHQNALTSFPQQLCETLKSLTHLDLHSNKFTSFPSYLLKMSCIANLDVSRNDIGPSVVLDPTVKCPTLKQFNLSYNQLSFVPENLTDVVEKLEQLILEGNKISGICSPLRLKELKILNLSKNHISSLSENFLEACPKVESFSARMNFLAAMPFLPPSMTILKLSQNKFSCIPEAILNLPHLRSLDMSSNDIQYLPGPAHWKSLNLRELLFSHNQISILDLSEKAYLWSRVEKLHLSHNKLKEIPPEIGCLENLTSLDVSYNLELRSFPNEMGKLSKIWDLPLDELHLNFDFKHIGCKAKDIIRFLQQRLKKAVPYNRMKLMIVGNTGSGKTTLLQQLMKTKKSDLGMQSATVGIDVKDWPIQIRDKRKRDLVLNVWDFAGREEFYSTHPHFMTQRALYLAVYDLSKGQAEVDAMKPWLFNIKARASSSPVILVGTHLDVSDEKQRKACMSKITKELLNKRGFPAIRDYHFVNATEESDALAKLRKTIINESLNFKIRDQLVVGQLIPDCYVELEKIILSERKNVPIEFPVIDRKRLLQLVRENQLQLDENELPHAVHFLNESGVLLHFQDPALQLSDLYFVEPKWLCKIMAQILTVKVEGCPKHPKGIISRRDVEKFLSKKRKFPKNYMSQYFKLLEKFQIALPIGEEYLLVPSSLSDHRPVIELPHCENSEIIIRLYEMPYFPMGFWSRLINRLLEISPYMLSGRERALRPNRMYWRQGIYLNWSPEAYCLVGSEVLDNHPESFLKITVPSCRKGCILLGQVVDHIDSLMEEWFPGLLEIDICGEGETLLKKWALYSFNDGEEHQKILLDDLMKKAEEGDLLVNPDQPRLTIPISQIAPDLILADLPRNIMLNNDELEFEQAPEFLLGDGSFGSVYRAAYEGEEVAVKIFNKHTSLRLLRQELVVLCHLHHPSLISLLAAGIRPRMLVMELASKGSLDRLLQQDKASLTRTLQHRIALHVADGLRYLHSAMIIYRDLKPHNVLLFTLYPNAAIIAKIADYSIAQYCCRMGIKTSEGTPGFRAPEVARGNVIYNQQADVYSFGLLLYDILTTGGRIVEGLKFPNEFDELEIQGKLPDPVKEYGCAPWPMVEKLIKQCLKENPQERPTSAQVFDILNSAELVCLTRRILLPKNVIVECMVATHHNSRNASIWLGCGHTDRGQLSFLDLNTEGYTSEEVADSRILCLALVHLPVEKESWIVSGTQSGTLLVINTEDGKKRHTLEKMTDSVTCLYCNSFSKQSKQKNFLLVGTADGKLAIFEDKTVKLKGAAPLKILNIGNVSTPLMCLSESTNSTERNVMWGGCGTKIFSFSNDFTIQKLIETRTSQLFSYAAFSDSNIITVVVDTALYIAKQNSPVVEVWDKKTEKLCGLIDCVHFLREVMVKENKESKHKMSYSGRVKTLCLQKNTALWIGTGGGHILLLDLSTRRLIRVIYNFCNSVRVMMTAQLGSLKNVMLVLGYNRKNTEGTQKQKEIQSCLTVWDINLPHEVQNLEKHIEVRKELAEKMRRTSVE
T1 sequence (Q5S007 970-2527 limits assumed): as the sequence (Q5S007 970-2527 G2019S limits assumed) above, with S1050G counted along it

SMILES | IC50 [1] [nM] | IC50 [2] [nM] | IC50 [3] [nM] | IC50 [4] [nM] | IC50 [5] [nM]
NC(=O)c1nn(-c2c(Cl)cccc2Cl)cc1Nc1ccc(C(=O)N2CCCCC2)cc1 [compound 82, 1-(2,6-dichlorophenyl)-4-((4-(piperidine-1-carbonyl)phenyl)amino)-1H-pyrazole-3-carboxamide] | 100 to 1000 | 100 to 1000 | 10 to 100 | 10 to 100 | 100 to 1000
CN1CCC(NC(=O)c2ccc(Nc3cn(-c4c(F)cccc4Cl)nc3C(N)=O)cc2)CC1 [compound 35, 1-(2-chloro-6-fluorophenyl)-4-((4-((1-methylpiperidin-4-yl)carbamoyl)phenyl)amino)-1H-pyrazole-3-carboxamide] | 10 to 100 | 100 to 1000 | 10 to 100 | 10 to 100 | 10 to 100
CCc1ccnn1-c1ccc(Nc2cn(-c3c(F)cccc3F)nc2C(N)=O)cc1 [compound 287, 1-(2,6-difluorophenyl)-4-((4-(5-ethyl-1H-pyrazol-1-yl)phenyl)amino)-1H-pyrazole-3-carboxamide] | 100 to 1000 | 10 to 100 | 100 to 1000 | 100 to 1000 | 100 to 1000
CN1CCC(N(C)C(=O)c2ccc(Nc3cn(-c4c(Cl)ccc(F)c4Cl)nc3C(N)=O)cc2)CC1 [compound 417, 1-(2,6-dichloro-3-fluorophenyl)-4-((4-(methyl(1-methylpiperidin-4-yl)carbamoyl)phenyl)amino)-1H-pyrazole-3-carboxamide] | 100 to 1000 | 100 to 1000 | 10 to 100 | 10 to 100 | 100 to 1000
CCc1ccnn1-c1ccc(Nc2cn(-c3c(F)cccc3Cl)nc2C(N)=O)cc1 [compound 286, 1-(2-chloro-6-fluorophenyl)-4-((4-(5-ethyl-1H-pyrazol-1-yl)phenyl)amino)-1H-pyrazole-3-carboxamide] | 100 to 1000 | 100 to 1000 | 10 to 100 | 100 to 1000 | 100 to 1000
Cn1cc(C(F)(F)F)nc1-c1ccc(Nc2cn(-c3c(F)cccc3F)nc2C(N)=O)cc1 [compound 308, 1-(2,6-difluorophenyl)-4-((4-(1-methyl-4-(trifluoromethyl)-1H-imidazol-2-yl)phenyl)amino)-1H-pyrazole-3-carboxamide] | 100 to 1000 | 100 to 1000 | 10 to 100 | 10 to 100 | 100 to 1000
NC(=O)c1nn(-c2c(F)cccc2Cl)cc1Nc1ccc(C(=O)N2CC3(CCC3)C2)cc1 [compound 54, 4-((4-(2-azaspiro[3.3]heptane-2-carbonyl)phenyl)amino)-1-(2-chloro-6-fluorophenyl)-1H-pyrazole-3-carboxamide] | 100 to 1000 | 100 to 1000 | 10 to 100 | 100 to 1000 | 100 to 1000
Cn1cc(Nc2cn(-c3c(F)cccc3Cl)nc2C(N)=O)cn1 [compound 359, 1-(2-chloro-6-fluorophenyl)-4-((1-methyl-1H-pyrazol-4-yl)amino)-1H-pyrazole-3-carboxamide] | 100 to 1000 | 100 to 1000 | 10 to 100 | 10 to 100 | 100 to 1000
CN(C)C1CCN(C(=O)c2ccc(Nc3cn(-c4c(Cl)cccc4Cl)nc3C(N)=O)cc2)C1 (centres unmarked) [compound 248, 1-(2,6-dichlorophenyl)-4-((4-(3-(dimethylamino)pyrrolidine-1-carbonyl)phenyl)amino)-1H-pyrazole-3-carboxamide] | 100 to 1000 | 100 to 1000 | 10 to 100 | 10 to 100 | 100 to 1000
Cc1cc(Nc2cn(-c3c(F)cccc3F)nc2C(N)=O)ncn1 [compound 4, 1-(2,6-difluorophenyl)-4-((6-methylpyrimidin-4-yl)amino)-1H-pyrazole-3-carboxamide] | 100 to 1000 | 100 to 1000 | 100 to 1000 |  | 100 to 1000
NC(=O)c1nn(-c2c(F)cccc2F)cc1Nc1ccccn1 [compound 7, 1-(2,6-difluorophenyl)-4-(pyridin-2-ylamino)-1H-pyrazole-3-carboxamide] | 100 to 1000 | 100 to 1000 | 100 to 1000 |  | 100 to 1000
CN1CCCN(C(=O)c2ccc(Nc3cn(-c4c(Cl)cccc4Cl)nc3C(N)=O)cc2)CC1 [compound 91, 1-(2,6-dichlorophenyl)-4-((4-(4-methyl-1,4-diazepane-1-carbonyl)phenyl)amino)-1H-pyrazole-3-carboxamide] |  | 100 to 1000 | < 10 | 10 to 100 | 
NC(=O)c1nn(-c2c(Cl)cccc2Cl)cc1Nc1ccc(-c2nc(C(F)(F)F)cn2CCO)cc1 [compound 338, 1-(2,6-dichlorophenyl)-4-((4-(1-(2-hydroxyethyl)-4-(trifluoromethyl)-1H-imidazol-2-yl)phenyl)amino)-1H-pyrazole-3-carboxamide] |  | 100 to 1000 | < 10 | 100 to 1000 | 
COCCc1ncnn1-c1ccc(Nc2cn(-c3c(Cl)cccc3Cl)nc2C(N)=O)cc1 [compound 327, 1-(2,6-dichlorophenyl)-4-((4-(5-(2-methoxyethyl)-1H-1,2,4-triazol-1-yl)phenyl)amino)-1H-pyrazole-3-carboxamide] |  | 100 to 1000 | 10 to 100 | 10 to 100 | 
CN(C)CCn1cnnc1-c1ccc(Nc2cn(-c3c(Cl)cccc3Cl)nc2C(N)=O)cc1 [compound 214, 1-(2,6-dichlorophenyl)-4-((4-(4-(2-(dimethylamino)ethyl)-4H-1,2,4-triazol-3-yl)phenyl)amino)-1H-pyrazole-3-carboxamide] |  | 100 to 1000 | < 10 | 10 to 100 | 
CN(C)CCn1ccnc1-c1ccc(Nc2cn(-c3c(Cl)cccc3Cl)nc2C(N)=O)cc1 [compound 251, 1-(2,6-dichlorophenyl)-4-((4-(1-(2-(dimethylamino)ethyl)-1H-imidazol-2-yl)phenyl)amino)-1H-pyrazole-3-carboxamide] |  | 100 to 1000 | 10 to 100 | 100 to 1000 | 
NC(=O)c1nn(-c2c(Cl)cccc2Cl)cc1Nc1ccc(C(=O)N2CC[C@H](N3CCCC3)C2)cc1 [compound 332, (S)-4-((4-([1,3′-bipyrrolidine]-1′-carbonyl)phenyl)amino)-1-(2,6-dichlorophenyl)-1H-pyrazole-3-carboxamide] |  | 100 to 1000 | < 10 | 100 to 1000 | 
CN1CCC(Oc2ccc(Nc3cn(-c4c(Cl)cccc4Cl)nc3C(N)=O)cc2)CC1 [compound 237, 1-(2,6-dichlorophenyl)-4-((4-((1-methylpiperidin-4-yl)oxy)phenyl)amino)-1H-pyrazole-3-carboxamide] |  | 100 to 1000 | < 10 | 100 to 1000 | 
